Laboratory results taken from ChEMBL document CHEMBL1121587, “Synthesis of some new S-alkylated derivatives of 5-mercapto-2'-deoxyuridine as potential antiviral agents” (1980).

Tested on: HeLa
Assay: Compound was evaluated for antiviral activity against Herpes simplex type 1 in HeLa TK- cells at 100 uM concentration
Format: functional, Homo sapiens

SMILES | Virus titer [pfu/ml]
C=CCSc1cnc(O)nc1O | 65000000
CSc1cn(O[C@H]2CC(O)[C@@H](CO)O2)c(=O)[nH]c1=O (stereo not given in full) | 5200000
C#CSc1cnc(O)nc1O | 37000000
C=CCSc1cn(O[C@H]2CC(O)[C@@H](CO)O2)c(=O)[nH]c1=O (stereo not given in full) | 5300000
O=c1[nH]c(=O)n(O[C@H]2CC(O)[C@@H](CO)O2)cc1SCCO (stereo not given in full) | 38000000
